Experimental data reported in US20250188085A1, “COMPOSITIONS AND METHODS FOR INHIBITION OF RAS” (THERAS, INC., priority 2022, published 2025).
Like-named read-outs stand apart in the source and are kept apart here.

Key:
[1] = target: T1, GDP-loaded KRAS4b (amino acids 1-169) G12C/C118S protein (Homo sapiens, UniProt P01116, C118S/G12C); assay: Covalent cysteine 12 modification by MALDI-TOF MS, GDP-loaded KRAS G12C; format: binding; details: 15 minutes reaction time point
T1 construct: KRAS4b (amino acids 1-169) G12C/C118S protein; made in house
Experimental: (§1) Reaction: 1 μM of GppNHp-, GTP-, or GDP-loaded KRAS4b (amino acids 1-169) G12C/C118S protein (produced in-house by Protein Expression Laboratory, FNLCR/Leidos Biomed) in 20 mM 4-(2-hydroxyethyl)-1-piperazineethanesulfonic acid (HEPES) buffer containing 150 mM NaCl, 1 mM MgCl2, pH 7.3 was prepared freshly before assay. Ten-μL aliquots of protein were dispensed onto low volume 384-well plate, then 375 nL DMSO, and 25 nL of tested compounds from 5 mM DMSO stocks were added to appropriate wells using ECHO 555 acoustic liquid handler (Labcyte Inc.). For each reaction/assay, three blanks were prepared by mixing 10 μL of protein solution with 400 nL DMSO. The contents of the wells were carefully mixed by aspiration, and then each plate was sealed with an adhesive cover, centrifuged at 2000 g for 1 minute, and kept in the dark at room temperature until 5 min, 15 min, 30 min, or 2 h collections.
(§2) Target pretreatment: Before each assay MALDI target (Bruker MPT 384 ground steel BC) was pre-treated by pipetting on each spot 0.75 μL of saturated sinapinic acid in acetonitrile (ACN).
(§3) Sample preparation: At collection time point, 2 μL of reaction mixtures were pipetted out into 20 μL MALDI matrix solution (saturated solution of sinapinic acid in 1:1 ACN:water solution containing 0.75% trifluoroacetic acid (TFA)) deposited on 384 well polypropylene plate. Resulting solution was mixed by aspiration, centrifuged at 2000 g for 1 minute, then 1 μL aliquots were dispensed on pre-treated MALDI target using Beckman Coulter Biomek FXP 96/384-Span-8 Laboratory Automation Workstation. Finally, the MALDI target was dried under mild vacuum to produce spots with fine crystalline structure.
(§4) Measurements: MALDI-TOF measurements were performed on a Bruker Daltonics rapiflex Tissuetyper TOF-TOF mass spectrometer using linear mode and mass range from 18.6 to 21.6 kDa. Detector gain was set to 3.3× (483 V), sample rate to 5 GS/s, real time smoothing to medium (175 MHz), laser smart beam pattern was set to: “MS Thin Layer M5”, and the laser frequency was 10000 Hz. Spectra were automatically collected using custom Auto Xecute method. Laser power was auto adjusted using fuzzy control. The peak selection range was set to be between 19000 and 21500 Da. Peak evaluation uses half width parameter set to be smaller than 40 Da for processed spectrograms (centroid peak detection; smoothed by SavitzkyGolay algorithm using 7 m/z width and 2 cycles; baseline was subtracted using median algorithm with flatness 1 and median level 0.01). Fuzzy control used Proteins/Oligonucleotides protocol with minimum half width 1/10 times above threshold. Up to 40000 satisfactory shots were collected in 10000 shot steps. Dynamic termination was implemented to finish data collection when peak signal/noise ratio was reaching value of 50.
(§5) Spectra processing: Spectra were smoothed by SavitzkyGolay algorithm using 7 m/z width and three cycles. Centroid peak detection algorithm was used with signal to noise threshold set to 6, relative intensity threshold 4%, peak width 10 m/z and median baseline subtraction using flatness of 1 and median level of 0.01. Peak intensity and area under the peak were evaluated and recorded for all peaks between 19,300 Da and 21,550 Da.
(§6) Calculation of percent modification: Percent modification was calculated as a ratio of peak height for protein modified by compound to sum of peak height of remaining protein plus peak height for protein modified by compound. If multiple modifications were observed each was calculated as a ratio of peak height for given modification versus sum of peak heights for all observed protein species. Data reported in Table 5 are from 15 minutes reaction time point.

[2] = target: T2, GppNHp-loaded KRAS4b (amino acids 1-169) G12C/C118S protein (Homo sapiens, UniProt P01116, C118S/G12C); assay: Covalent cysteine 12 modification by MALDI-TOF MS, GppNHp-loaded KRAS G12C; format: binding; details: 15 minutes reaction time point
T2 construct: KRAS4b (amino acids 1-169) G12C/C118S protein; made in house
Experimental: as §1, §2, §3, §4, §5, §6

pERK in NCI-H358 cells = assay: Cell-based pERK HTRF assay; details: 30 min incubation, read-out: pERK in NCI-H358 cell inhibition IC50
Experimental: pERK assays (Perkin Elmer) were used to determine the effectiveness of compounds of the present disclosure in disrupting KRAS G12C protein/effector signaling in cells.
On Day 1, cells (NCI-H358) were seeded into 96-well plates at 4×10^4 cells/well in complete growth media (RPMI, 10% FBS).
On Day 2, cells were treated with compounds at 0.25% DMSO. The source plate was created with compounds diluted in media at 5-fold the final assay concentration. The compounds were run in a 9-point concentration curve starting at 75 μM, with a 3-fold dilution between concentrations. 20 μL was transferred onto the cell plates (final volume in wells was 100 μL). Plates were harvested after 30 min incubation by aspirating media and adding kit-supplied 1× supplemented lysis buffer to all wells (75 μl per well). Plates were then placed on a plate shaker and incubated at 850 rpm for an additional 30 min.
Antibody mixture solution was prepared by diluting aliquoted d2 and Eu Cryptate antibodies 1:20 in kit supplied detection buffer, then mixed the diluted antibodies solutions (1:1 v:v). 4 μL of this solution was then added to a 384-well detection plate (Perkin Elmer; 6008230).
Samples were homogenized by pipetting up and down and then transferred (16 μL of cell lysates) from the 96-well cell culture plate to two wells of the HTRF 384-well detection plate containing the antibody solution. Plates were centrifuged (524 g for Imin) and allowed to incubate between 4 and 24 h at room temperature. Maximum signal is reached after 4 h incubation time and remains stable over a period of 24 hours. Therefore, readings can be made between 4 and 24 h of incubation. Plates were centrifuged again (524 g for Imin) and analyzed on the En Vision plate reader using the following settings: Excitation 320 nm, Bandwidth 75 nm; Emission 615 nm, Bandwidth 85 nm; Gain 100%; Flashes 100; Lag 60 μs.

[3] = target: T3, Avi-KRAS G12C (1-169) GppNHp/RAF1 RBD-3×FLAG (52-151) (Homo sapiens, UniProt P01116, G12C); assay: Raf1 RBD-KRAS G12C-GppNHp disruption (protein:protein interaction HTRF assay); format: biochemical
T3 construct: Avi-KRAS G12C (1-169) GppNHp/RAF1 RBD-3×FLAG (52-151)
Experimental: A protein: protein (PPI) interaction Homogeneous Time Resolved Fluorescence (HTRF) assay was used to determine the effectiveness of compounds of the present disclosure in disrupting KRAS G12C protein and effector (RAF1 or PIK3CA) binding.
The HTRF assay used the following reagents and proteins: 50 nM Avi-KRAS G12C Q25A (1-169) GppNHp/3×FLAG-PI3K CA (157-299); 50 nM Avi-KRAS G12C (1-169) GppNHp/RAF1 RBD-3×FLAG (52-151); 35 nM Avi-PI3K RBD-3×FLAG; Assay Buffer: 50 mM Tris pH 7.5, 100 mM NaCl, 5 mM MgCl2, 0.1% BSA, 0.01% Tween 20, 10% DMSO; Bead Buffer: 50 mM Tris pH 7.5, 0.01% Tween 20; Assay volume: 20 μL (384 well plate-low volume format); and Compound titration: 30-0.02 μM, 3× dilution series.
The HTRF assay employed the following protocol:
Compounds were dispensed in assay plate (384-well, Grenier Bione #784075) using Echo (model 555) with dose response settings: 200 nL final volume, titration from 100 μM as a 10-point dilution series. KRAS proteins were prepared in assay buffer, and dispensed on plates, 5 μL per well, then incubated for 1 h at room temperature, with 700 rpm shaking. RAF1 RBD and PI3K RBD CA were prepared in assay buffer, dispensed onto plates, 5 μL per well, and then incubated for 1 h at room temperature, with 700 rpm shaking. Reagent mix was then prepared and dispensed on plates, 10 μL per well, and then incubated for 1 h at room temperature, with 700 rpm shaking.
Plates were analyzed on an Envision plate reader using the following setting: Excitation 320 nm, Bandwidth 75 nm; Emission 615 nm, Bandwidth 85 nm; Gain 100%; Flashes 100; Lag 60 μs. Data was reported as percentage of activity, with DMSO as 100%. Data was plotted and analyzed using Prism 8.

| GDP-KRAS G12C percent of modification [1] | GppNHp-KRAS G12C percent of modification [2] | IC50 (pERK in NCI-H358 cells) [µM] | IC50 [3] [µM] | IC50 (pERK in NCI-H358 cells; Homo sapiens, NCI-H358, 0.5 h) [µM] | SMILES |
| --- | --- | --- | --- | --- | --- |
| D (percent of modification <10%) | D (percent of modification <10%) | 0.1 to 1 | 0.5 to 5 | – | C=CC(=O)N1CC[C@@H](Oc2nc(OC[C@@]34CCCN3C[C@H](F)C4)nc3c(F)c(-c4ccc(F)c5sc(N)nc45)c(C(F)(F)F)cc23)C1 (single isomer, unassigned) [Compound 12] |
| A (percent of modification ≥70%) | B (50≤percent of modification <70%) | ≤ 0.1 | ≤ 0.5 | – | C=CC(=O)N1CC[C@@H](Oc2nc(OC[C@@H]3C[C@@H](OC)CN3C)nc3c(F)c(-c4ccc(F)c5sc(N)nc45)c(C(F)(F)F)cc23)C1 (single isomer, unassigned) [Compound 14] |
| D (percent of modification <10%) | D (percent of modification <10%) | > 1 | > 20 | – | C=CC(=O)N1CC[C@@H](Oc2nc(OC[C@@H]3C[C@@H](OC)CN3C)nc3c(F)c(-c4ccc(F)c5sc(N)nc45)c(C(F)(F)F)cc23)C1 (single isomer, unassigned) [Compound 15] |
| A (percent of modification ≥70%) | A (percent of modification ≥70%) | ≤ 0.1 | ≤ 0.5 | – | C=CC(=O)N1CC[C@@H](Oc2nc(OC[C@]34CCCN3C[C@H](OC)C4)nc3c(F)c(-c4ccc(F)c5sc(N)nc45)c(C(F)(F)F)cc23)C1 (single isomer, unassigned) [Compound 30] |
| D (percent of modification <10%) | D (percent of modification <10%) | > 1 | 0.5 to 5 | – | C=CC(=O)N1CC[C@@H](Oc2nc(OC[C@]34CCCN3C[C@H](OC)C4)nc3c(F)c(-c4ccc(F)c5sc(N)nc45)c(C(F)(F)F)cc23)C1 (single isomer, unassigned) [Compound 31] |
| A (percent of modification ≥70%) | C (10%≤modification <50%) | – | 0.5 to 5 | 0.1 to 1 | C=CC(=O)N1CC(Oc2nc(OC[C@@H]3CCCN3C)nc3c(F)c(-c4ccc(F)c5sc(N)nc45)c(Cl)cc23)C1 [Compound 1] |
| B (50≤percent of modification <70%) | D (percent of modification <10%) | – | 0.5 to 5 | 0.1 to 1 | CC#CC(=O)N1CC(Oc2nc(OC[C@@H]3CCCN3C)nc3c(F)c(-c4ccc(F)c5sc(N)nc45)c(Cl)cc23)C1 [Compound 2] |
| D (percent of modification <10%) | D (percent of modification <10%) | – | > 20 | > 1 | C=CC(=O)N1CC(Oc2nc(OC[C@@]34CCCN3C[C@H](F)C4)nc3c(F)c(-c4ccc(F)c5sc(N)nc45)c(C(F)(F)F)cc23)C1 [Compound 7, 1-(3-((7-(2-amino-7-fluorobenzo[d]thiazol-4-yl)-8-fluoro-2-(((2R,7aS)-2-fluorotetrahydro-1H-pyrrolizin-7a (5H)-yl)methoxy)-6-(trifluoromethyl)quinazolin-4-yl)oxy)azetidin-1-yl) prop-2-en-1-one] |
| A (percent of modification ≥70%) | B (50≤percent of modification <70%) | – | ≤ 0.5 | 0.1 to 1 | C=CC(=O)N1CC[C@@H](Oc2nc(OC[C@@H]3CCCN3C)nc3c(F)c(-c4ccc(F)c5sc(N)nc45)c(C(F)(F)F)cc23)C1 [Compound 13] |
| A (percent of modification ≥70%) | C (10%≤modification <50%) | – | ≤ 0.5 | ≤ 0.1 | C=CC(=O)N1CC(Oc2nc(OC[C@@H]3CCCN3C)nc3c(F)c(-c4ccc(F)c5sc(N)nc45)c(C(F)(F)F)cc23)C1 [Compound 22] |
| B (50≤percent of modification <70%) | C (10%≤modification <50%) | – | 0.5 to 5 | 0.1 to 1 | C=CC(=O)N1CC(Oc2nc(OC[C@@H]3C[C@@H](F)CN3C)nc3c(F)c(-c4ccc(F)c5sc(N)nc45)c(C(F)(F)F)cc23)C1 [Compound 23] |
| A (percent of modification ≥70%) | C (10%≤modification <50%) | – | 0.5 to 5 | ≤ 0.1 | C=CC(=O)N1CC(Oc2nc(OC[C@@H]3C[C@@H](OC)CN3C)nc3c(F)c(-c4ccc(F)c5sc(N)nc45)c(C(F)(F)F)cc23)C1 [Compound 26] |
